Source: US7355033B2, “Screening for West Nile Virus antiviral therapy” (Health Research, Inc., priority 2002, dated 2008)

What was measured:
[1] = test system: lineage I WNV replicon (Rluc/NeoRep) RNA; assay: Replicon RNA copy number by real-time RT-PCR in Rluc/NeoRep reporting cell line; assay type: cell-based; details: West Nile virus, 24 h, read-out: EC50 derived from the replicon RNA copy numbers
Experimental: (§1) To test the stability of the replicon-containing cell lines, cells at various time points post-selection (p.s.) were examined for viral and Rluc protein expression, and for replicon RNA copy numbers. […] (lower two panels in FIG. 18B). […] (ii) Stable and high levels of Rluc activity were detected from cells collected on days 20, 50, and 80 p.s. (FIG. 18C). For Rluc assay, 10^6 cells were lysed in 500 microliters of lysis buffer; 20 microliters of lysate was measured for Rluc activity according to the manufacturer (Promega) using a Lumat luminometer (EG & G, Berthold, Australia). Approximately 8×10^6 light units were consistently detected from 4×10^4 cells, about 200 light units per cell. (iii) A consistent level of replicon RNA was maintained in cells at 20, 50, and 80 days p.s. (FIG. 18D). Real-time RT-PCR, targeting the viral NS1 region, was used to quantify replicon RNA as previously reported (Shi, P. Y., et al. 2002. Virology 296:219-233; Shi, P. Y., et al. 2002. J. Virol. 76:5847-56; Lo, M. K., et al. 2003. J. Virology 77, 12901-12906). Total RNA extracted from 10^6 cells was eluted in 50 microliters of RNase-free water using RNeasy kits (Qiagen); 5 microliters of RNA was quantified by real-time RT-PCR, using in vitro trancribed RNA as standards. About 10^9 replicon molecules in 10^5 cells was estimated, or about 10^4 replicon RNAs per cell.
To verify that the reduction in Rluc activity reflected the compound inhibition of viral RNA replication, RT-PCR was performed. After 24 h of compound treatment, cells from the 12-well plates were assayed for RNA amounts as described above, except that 12 μl from the 50 μl extracted RNA was used in the real-time RT-PCR assay. […] The relative potencies of the three tested compounds are also similar to those observed with the Rluc results, in the decreasing order of mycophenolic acid, 6-azauridine, and ribavirin (compare FIGS. 19A to 19B). […]

[2] = test system: lineage I WNV replicon (Rluc/NeoRep); assay: Rluc activity in BHK-21 reporting cell line containing WNV Rluc/NeoRep replicon; assay type: cell-based; details: West Nile virus, 24 h compound treatment, 12-well plates, estimated from Rluc curves, read-out: EC50 (compound concentration required to inhibit 50% of the Rluc activity)
Experimental: as §1
To examine whether the reporting cell line can be used as an antiviral assay, three known WNV inhibitors were tested in the cells: 6-azauridine, an inhibitor of orotidine monophosphate decarboxylase, and mycophenolic acid and ribavirin, inhibitors of inosine monophosphate dehydrogenase (De Clercq, E. 1993. Advance Virus Res. 42:1-55; Jordan, I., et al. 2000. J. Infect. Dis. 182:1214-7; Morrey, J., et al. 2002. Antiviral Res. 55:107-116). Ribavirin has also been reported to function as a mutagen, causing lethal levels of mutagenesis within the virus population (Crotty, S., et al. 2000. Nature Med. 6:1375-9). All three compounds were purchased from Sigma (St. Louis, Mo.). Initially, the assay was performed in 12-well plates. […]

WNV = details: Morrey et al. 2002; read-out: EC50 derived from the standard viral infection assay; cited from earlier work

Compound | EC50 [1] [µM] | EC50 [2] [µM] | EC50 (WNV) [µM]
O=c1cnn([C@@H]2O[C@H](CO)[C@@H](O)[C@H]2O)c(=O)[nH]1 [6-azauridine] | > 300 | 11 | 6.1
COc1c(C)c2c(c(O)c1C/C=C(\C)CCC(=O)O)C(=O)OC2 [mycophenolic acid] | ~100 | 5.4 | 8.4
NC(=O)c1ncn([C@@H]2O[C@H](CO)[C@@H](O)[C@H]2O)n1 [ribavirin] | > 300 | 140 | 178
